This experiment deals with P388 leukemia ip, CD2F1 mice, survival T/C. The experiment in a line: NCI In Vivo Anticancer Drug Screen. Data for tumor model P388 Leukemia (intraperitoneal) in CD2F1 (CDF1) mice. The settings on record: endpoint: median survival time, higher = longer survival. In outline: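 Mice carrying the transplanted tumor received test compound or vehicle. Survival was recorded in each group, and the value is the treated-group measurement divided by that of the vehicle-treated control group.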

Where [1] appears, read: dose: 25.0 mg/kg/injection, schedule: Q01DX005 (ip), vehicle: Klucel (hydroxypropylcellulose) (HPC).
Setting [2] is: dose: 50.0 mg/kg/injection, schedule: Q01DX005 (ip), vehicle: Klucel (hydroxypropylcellulose) (HPC).
The mark [3] stands for this setting: dose: 100.0 mg/kg/injection, schedule: Q01DX005 (ip), vehicle: Klucel (hydroxypropylcellulose) (HPC).
Setting [4] is: dose: 60.0 mg/kg/injection, schedule: Q01DX005 (ip), vehicle: Klucel (hydroxypropylcellulose) (HPC).
The mark [5] stands for this setting: dose: 120.0 mg/kg/injection, schedule: Q01DX005 (ip), vehicle: Klucel (hydroxypropylcellulose) (HPC).
Where [6] appears, read: dose: 240.0 mg/kg/injection, schedule: Q01DX005 (ip), vehicle: Klucel (hydroxypropylcellulose) (HPC).
Where [7] appears, read: dose: 60.0 mg/kg/injection, schedule: Q01DX005 (ip), vehicle: saline with Tween-80.
[8] abbreviates: dose: 120.0 mg/kg/injection, schedule: Q01DX005 (ip), vehicle: saline with Tween-80.
The mark [9] stands for this setting: dose: 240.0 mg/kg/injection, schedule: Q01DX005 (ip), vehicle: saline with Tween-80.
Where [10] appears, read: dose: 12.5 mg/kg/injection, schedule: Q01DX005 (ip), vehicle: Klucel (hydroxypropylcellulose) (HPC).
Where [11] appears, read: dose: 50.0 mg/kg/injection, schedule: Q01DX005 (ip), vehicle: saline with Tween-80.

SMILES strings stand for the structures. “And” between values parts separate entries of the source, which are not always exact repeats. Equal entries are not always repeated. Inconclusive results and toxic doses are left out.

The record followed here is PubChem BioAssay AID330 (DTP/NCI, 2004).

Consider `O=C1c2ccccc2C(=O)N1c1ccc(C(F)(F)F)cc1[N+](=O)[O-]`, for which the T/C was 91 % of control (dose: 100.0 mg/kg/injection, schedule: Q04DX003 (ip), vehicle: saline); 100 % of control (dose: 200.0 mg/kg/injection, schedule: Q04DX003 (ip), vehicle: saline); 93 % of control (dose: 400.0 mg/kg/injection, schedule: Q04DX003 (ip), vehicle: saline).
For `Cc1c2c(c(C)c3ccccc13)C(O)C(O)c1ccccc1-2` (centres undefined), the T/C runs as follows: (dose: 100.0 mg/kg/injection, schedule: Q01DX001 (ip), vehicle: Klucel (hydroxypropylcellulose) (HPC)) 91 % of control; (dose: 200.0 mg/kg/injection, schedule: Q01DX001 (ip), vehicle: Klucel (hydroxypropylcellulose) (HPC)) 91 % of control; (dose: 400.0 mg/kg/injection, schedule: Q01DX001 (ip), vehicle: Klucel (hydroxypropylcellulose) (HPC)) 99 % of control.
With `O=C1NC(c2ccccc2)(c2ccccc2)C(=O)N1CN1CCN(CN2C(=O)NC(c3ccccc3)(c3ccccc3)C2=O)CC1`, the T/C reads like this: (dose: 25.0 mg/kg/injection, schedule: Q01DX001 (ip), vehicle: saline with Tween-80) 100 % of control; (dose: 50.0 mg/kg/injection, schedule: Q01DX001 (ip), vehicle: saline with Tween-80) 95 % of control; (dose: 100.0 mg/kg/injection, schedule: Q01DX001 (ip), vehicle: saline with Tween-80) 90 % of control.
Regarding `CCCCCCCCCCn1cc[nH]c1=S`, the T/C was 103 % of control under setting [1]; 107 % of control and 115 % of control under setting [2]; 105 % of control and 112 % of control under setting [3]; 117 % of control (dose: 200.0 mg/kg/injection, schedule: Q01DX005 (ip), vehicle: Klucel (hydroxypropylcellulose) (HPC)).
For `CC(=O)Nc1ccc(S(=O)(=O)Nc2ccc3[nH]c(=O)oc3c2)cc1`, the T/C is 104 % of control (dose: 50.0 mg/kg/injection, schedule: Q04DX002 (ip), vehicle: Klucel (hydroxypropylcellulose) (HPC)); 97 % of control (dose: 100.0 mg/kg/injection, schedule: Q04DX002 (ip), vehicle: Klucel (hydroxypropylcellulose) (HPC)); 97 % of control (dose: 200.0 mg/kg/injection, schedule: Q04DX002 (ip), vehicle: Klucel (hydroxypropylcellulose) (HPC)).
For `FC(F)(F)COP1OCCS1` (centres undefined), the T/C is 99 % of control (dose: 12.5 mg/kg/injection, schedule: Q04DX002 (ip), vehicle: saline with Tween-80); 99 % of control (dose: 25.0 mg/kg/injection, schedule: Q04DX002 (ip), vehicle: saline with Tween-80); 98 % of control (dose: 50.0 mg/kg/injection, schedule: Q04DX002 (ip), vehicle: saline with Tween-80); 100 % of control (dose: 100.0 mg/kg/injection, schedule: Q04DX002 (ip), vehicle: saline with Tween-80); 104 % of control (dose: 200.0 mg/kg/injection, schedule: Q04DX002 (ip), vehicle: saline with Tween-80).
Consider `CC(=O)OC1CC2C(C)(C)OC(=O)C=CC2(C)C2CCC3(C)C(c4ccoc4)C(=O)C4OC43C12C` (centres undefined), for which the T/C by setting is: (dose: 7.5 mg/kg/injection, schedule: Q01DX005 (ip), vehicle: Klucel (hydroxypropylcellulose) (HPC)) 88 % of control; (dose: 15.0 mg/kg/injection, schedule: Q01DX005 (ip), vehicle: Klucel (hydroxypropylcellulose) (HPC)) 93 % of control; (dose: 30.0 mg/kg/injection, schedule: Q01DX005 (ip), vehicle: Klucel (hydroxypropylcellulose) (HPC)) 95 % of control; under setting [4], 93 % of control.
For the compound `O=[N+]([O-])c1cccc(NC(c2ccccc2)S(=O)(=O)O)c1` (centres undefined), the T/C by setting is: (dose: 50.0 mg/kg/injection, schedule: Q01DX009 (ip), vehicle: saline) 104 % of control; (dose: 100.0 mg/kg/injection, schedule: Q01DX009 (ip), vehicle: saline) 114 % of control; (dose: 200.0 mg/kg/injection, schedule: Q01DX009 (ip), vehicle: saline) 106 % of control.
Take `O=C(c1ccc(Cl)cc1)C(O)NC(=S)c1ccc(Cl)cc1` (centres undefined): the T/C was 96 % of control (dose: 50.0 mg/kg/injection, schedule: Q01DX009 (ip), vehicle: saline with Tween-80); 111 % of control (dose: 100.0 mg/kg/injection, schedule: Q01DX009 (ip), vehicle: saline with Tween-80); 113 % of control (dose: 200.0 mg/kg/injection, schedule: Q01DX009 (ip), vehicle: saline with Tween-80).
`COC1(OC)C(C#N)=C(c2ccccc2)C1(OC)OC`: the T/C was 115 % of control under setting [4], 102 % of control under setting [5] and 101 % of control under setting [6].
For `O=C(O)c1ccc2c(c1Sc1ccc(Cl)cc1)C(=O)c1ccccc1C2=O`, in that order: 100 % of control, 90 % of control and 99 % of control.
`Nc1nnc(Cc2cccc3ccccc23)o1`: the T/C was 109 % of control under setting [7], 106 % of control under setting [8] and 103 % of control under setting [9].
`CNC(=O)OCc1c(-c2ccccc2)nc2n1CCS2`: the T/C runs as follows: (dose: 12.5 mg/kg/injection, schedule: Q01DX001 (ip), vehicle: Klucel (hydroxypropylcellulose) (HPC)) 108 % of control; (dose: 25.0 mg/kg/injection, schedule: Q01DX001 (ip), vehicle: Klucel (hydroxypropylcellulose) (HPC)) 107 % of control; (dose: 50.0 mg/kg/injection, schedule: Q01DX001 (ip), vehicle: Klucel (hydroxypropylcellulose) (HPC)) 113 % of control.
`OCCN(CCO)CC(O)c1cc(-c2ccccc2)nc2ccccc12` (centres undefined): the T/C runs as follows: under setting [10], 103 % of control; under setting [1], 94 % of control; under setting [2], 102 % of control and 103 % of control; under setting [3], 110 % of control.
As for `[Zn].c1c[nH]cn1.c1c[nH]cn1.c1c[nH]cn1.c1c[nH]cn1`, the T/C (dose: 25.0 mg/kg/injection, schedule: Q01DX005 (ip), vehicle: saline with Tween-80) is 107 % of control and 109 % of control; the T/C under setting [11] is 106 % of control and 110 % of control and 115 % of control.
Consider `COc1c(CO)c2c(c(OC)c1OC)-c1ccc(OC)c(=O)cc1[C@@H](NC(C)=O)CC2`, for which the T/C is, setting by setting: (dose: 25.0 mg/kg/injection, schedule: Q01DX009 (ip), vehicle: Klucel (hydroxypropylcellulose) (HPC)) 160 % of control; (dose: 50.0 mg/kg/injection, schedule: Q01DX009 (ip), vehicle: Klucel (hydroxypropylcellulose) (HPC)) 185 % of control.
Consider `C/C(=C\c1ccccc1)C(=O)C(CN(C)C)CN(C)C`, for which the T/C was 111 % of control (dose: 1.87 mg/kg/injection, schedule: Q01DX005 (ip), vehicle: saline); 113 % of control (dose: 3.75 mg/kg/injection, schedule: Q01DX005 (ip), vehicle: saline); 100 % of control and 113 % of control (dose: 7.5 mg/kg/injection, schedule: Q01DX005 (ip), vehicle: saline).
As for `Clc1ccc(SSN2CCOCC2)cc1`, the T/C runs as follows: (dose: 3.12 mg/kg/injection, schedule: Q01DX009 (ip), vehicle: saline) 100 % of control; (dose: 6.25 mg/kg/injection, schedule: Q01DX009 (ip), vehicle: saline) 109 % of control; (dose: 12.5 mg/kg/injection, schedule: Q01DX009 (ip), vehicle: saline) 102 % of control.
With `O=C(Nc1ccc(Cl)cc1)Nc1nnc(-c2ccc(-c3nnc(NC(=O)Nc4ccc(Cl)cc4)o3)cc2)o1`, the T/C is 104 % of control under setting [7], 100 % of control under setting [8] and 98 % of control under setting [9].
In the case of `NC(=O)CC1Cc2ccc3ccc(O)cc3c2C1=O` (centres undefined), the T/C (dose: 12.5 mg/kg/injection, schedule: Q01DX009 (ip), vehicle: distilled water + Tween-80) is 100 % of control; the T/C (dose: 25.0 mg/kg/injection, schedule: Q01DX009 (ip), vehicle: distilled water + Tween-80) was 97 % of control; the T/C (dose: 50.0 mg/kg/injection, schedule: Q01DX009 (ip), vehicle: distilled water + Tween-80) is 93 % of control; the T/C (dose: 100.0 mg/kg/injection, schedule: Q01DX009 (ip), vehicle: distilled water + Tween-80) was 94 % of control; the T/C (dose: 200.0 mg/kg/injection, schedule: Q01DX009 (ip), vehicle: distilled water + Tween-80) was 95 % of control.
Take `OCC1OC2C(NC(=S)N2c2ccccc2)C(O)C1O` (centres undefined): the T/C is 101 % of control under setting [7], 98 % of control under setting [8] and 104 % of control under setting [9].
On to `O=C1CN(CCN2CCCCC2)CC(=O)N2CCCCN12`, for which the T/C was 102 % of control under setting [11] and 107 % of control (dose: 100.0 mg/kg/injection, schedule: Q01DX005 (ip), vehicle: saline with Tween-80).
Turning to `Nc1cccc2c1C(=O)c1cccc3snc-2c13`, the T/C is 102 % of control under setting [10]; 104 % of control under setting [1]; 100 % of control and 97 % of control under setting [2]; 87 % of control under setting [3].
